Values of other authors as cited in US20140162261A1, “DETECTION KIT FOR IDENTIFYING GENOTYPE IN DEPRESSION PATIENTS AND METHOD OF USING THE SAME” (priority 2012, published 2014).

Assays:
[1] = oral administration
depression patients = details: SSRIs in combination with low-dose risperidone (0.5-1 mg/day), in 1-2 days
[2] = molecular target: T1, striatal dopamine D2 receptors (Homo sapiens, UniProt P14416); details: 4 mg dose
T1 construct: host or cells: striatum (in vivo)
T1 sequence (P14416 whole entry): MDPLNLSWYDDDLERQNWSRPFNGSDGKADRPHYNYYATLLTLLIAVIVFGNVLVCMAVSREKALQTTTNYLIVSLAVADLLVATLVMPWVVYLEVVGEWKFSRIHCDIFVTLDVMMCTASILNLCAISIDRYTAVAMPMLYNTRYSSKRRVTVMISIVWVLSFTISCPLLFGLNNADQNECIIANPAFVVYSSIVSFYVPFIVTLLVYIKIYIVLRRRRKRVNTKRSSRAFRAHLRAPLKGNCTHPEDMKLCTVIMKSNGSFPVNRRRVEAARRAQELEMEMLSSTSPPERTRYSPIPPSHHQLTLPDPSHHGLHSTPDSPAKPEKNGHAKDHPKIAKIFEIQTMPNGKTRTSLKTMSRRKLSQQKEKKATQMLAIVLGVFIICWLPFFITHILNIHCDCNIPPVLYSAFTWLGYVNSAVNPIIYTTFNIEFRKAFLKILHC

Structure (SMILES): Cc1nc2n(c(=O)c1CCN1CCC(c3noc4cc(F)ccc34)CC1)CCCC2 [Risperidone]
- affinity for α2-adrenergic receptors (α2-adrenergic receptors): low affinity
- effect of food on digestion (absorption) [1]: not affected by food
- improvement of patients' symptoms (depression patients): significantly improve most of the patient's symptoms
- binding with cholinergic receptors (cholinergic receptors): does not bind
- blockade of striatal dopamine D2 receptors [2]: 70-80%
